Results: ChEMBL document CHEMBL1201862, “PubChem BioAssay data set” (2004)
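Assay format: 96-well plates, 48-hour exposure. At the GI50, growth is halved.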 Activity calls are given as the source filed them. Rule as the data show it: active = GI50 up to about 1.1 µM and inactive = higher.

Assays:
Experiment in all cases: growth of human tumour cells (NCI), 48 h
UACC-257 = tested on: UACC-257
TK-10 = tested on: TK-10
NCI/ADR-RES = tested on: NCI/ADR-RES
K562 = tested on: K562
786-0 = tested on: 786-0
UACC-62 = tested on: UACC-62
SK-MEL-5 = tested on: SK-MEL-5
COLO 205 = tested on: COLO 205
RPMI-8226 = tested on: RPMI-8226
SR = tested on: SR
HCT-15 = tested on: HCT-15
NCI-H460 = tested on: NCI-H460
SK-OV-3 = tested on: SK-OV-3
OVCAR-3 = tested on: OVCAR-3
HCC 2998 = tested on: HCC 2998
PC-3 = tested on: PC-3
SK-MEL-28 = tested on: SK-MEL-28
NCI-H522 = tested on: NCI-H522
LOX IMVI = tested on: LOX IMVI
M14 = tested on: M14

Row | Compound | GI50 (UACC-257) | GI50 (TK-10) | GI50 (NCI/ADR-RES) | GI50 (K562) | GI50 (786-0) | GI50 (UACC-62) | GI50 (SK-MEL-5) | GI50 (COLO 205) | GI50 (RPMI-8226) | GI50 (SR) | GI50 (HCT-15) | GI50 (NCI-H460) | GI50 (SK-OV-3) | GI50 (OVCAR-3) | GI50 (HCC 2998) | GI50 (PC-3) | GI50 (SK-MEL-28) | GI50 (NCI-H522) | GI50 (LOX IMVI) | GI50 (M14)
1 | CC1=C(O)C(=O)c2ccccc2C1=O | 47.3 µM (inactive) | 24.3 µM (inactive) | > 100 µM (inactive) | 78.5 µM (inactive) | 71.9 µM (inactive) | 39.3 µM (inactive) | 4.45 µM (inactive) | > 100 µM (inactive) | 18.6 µM (inactive) | 88.5 µM (inactive) | 27 µM | 43.6 µM (inactive) | > 100 µM (inactive) | 43.4 µM (inactive) | > 100 µM (inactive) | 82.6 µM (inactive) | > 100 µM (inactive) | 47.9 µM (inactive) | 70.6 µM (inactive) | 16.9 µM (inactive)
2 | CN(C)c1ccc(C=c2c3cc(O)ccc3n3c2cc(-c2ccccc2)[n+]3C)cc1 | 1.08 µM (active) | 3.72 µM (inactive) | 36.1 µM (inactive) | 0.428 µM (active) | 1.09 µM (active) | 1.36 µM (inactive) | 0.78 µM (active) | 0.452 µM (active) | 0.282 µM (active) | 0.568 µM (active) | 18 µM |  | 3.08 µM (inactive) | 0.746 µM (active) | 2.22 µM (inactive) | 0.9 µM (active) | 1.06 µM (active) | 0.337 µM (active) | 1.18 µM (inactive) | 1.51 µM (inactive)
3 | COC(=O)C1(C)CCCC2(C)c3cc(OC)ccc3C(=O)C(Br)C12 (stereo not drawn) | > 10 µM (inactive) | > 10 µM (inactive) | > 10 µM (inactive) | 3.68 µM (inactive) | 1.84 µM (inactive) | > 10 µM (inactive) | > 10 µM (inactive) | 2.63 µM (inactive) | 2.24 µM (inactive) | 2.76 µM (inactive) | > 10 µM | > 10 µM (inactive) | > 10 µM (inactive) | 5.35 µM (inactive) | > 10 µM (inactive) | 9.73 µM (inactive) | > 10 µM (inactive) | 2.86 µM (inactive) | > 10 µM (inactive) | 3.35 µM (inactive)
4 | O=[N+]([O-])c1ccc(N/N=C/CC(O)(C(F)(F)F)C(F)(F)F)c([N+](=O)[O-])c1 | 3.65 µM (inactive) | 5.79 µM (inactive) | 3.68 µM (inactive) | 3.55 µM (inactive) | 5.04 µM (inactive) | 4.06 µM (inactive) | 4.55 µM (inactive) | 3.67 µM (inactive) | 2.76 µM (inactive) | 5.06 µM (inactive) | 3.01 µM | 2.97 µM (inactive) | 4.8 µM (inactive) | 2.8 µM (inactive) | 5.32 µM (inactive) | 3.24 µM (inactive) | 7.78 µM (inactive) | 3.21 µM (inactive) | 5.55 µM (inactive) | > 10 µM (inactive)
5 | O=C(O)C(F)(OC(F)(F)C(F)(OC(F)(F)C(F)(F)C(F)(F)F)C(F)(F)F)C(F)(F)F (stereo not drawn) | > 100 µM (inactive) | > 100 µM (inactive) | > 100 µM (inactive) | > 100 µM (inactive) | > 100 µM (inactive) | > 100 µM (inactive) | > 100 µM (inactive) | > 100 µM (inactive) | > 100 µM (inactive) | > 100 µM (inactive) | > 100 µM | > 100 µM (inactive) | > 100 µM (inactive) | > 100 µM (inactive) | > 100 µM (inactive) | 59.7 µM (inactive) | > 100 µM (inactive) | > 100 µM (inactive) | > 100 µM (inactive) | > 100 µM (inactive)
6 | Cc1ccc(C(=O)/C=C2\Nc3ccccc3S\C2=N\CS(=O)(=O)c2ccc(C)cc2)cc1 | > 10 µM (inactive) | > 10 µM (inactive) | > 10 µM (inactive) | > 10 µM (inactive) | > 10 µM (inactive) | > 10 µM (inactive) | > 10 µM (inactive) | > 10 µM (inactive) | > 10 µM (inactive) | > 10 µM (inactive) | > 10 µM |  | 6.89 µM (inactive) | 4.33 µM (inactive) | > 10 µM (inactive) | > 10 µM (inactive) | > 10 µM (inactive) | 5.38 µM (inactive) | > 10 µM (inactive) | > 10 µM (inactive)
7 | C/C(=N\NC(N)=O)C(CN1CCOCC1)C(c1ccccc1)c1c(O)c2ccccc2oc1=O (stereo not drawn) | > 100 µM (inactive) | > 100 µM (inactive) | > 100 µM (inactive) | > 100 µM (inactive) | > 100 µM (inactive) | > 100 µM (inactive) | > 100 µM (inactive) | > 100 µM (inactive) | > 100 µM (inactive) | > 100 µM (inactive) | > 100 µM |  | > 100 µM (inactive) | > 100 µM (inactive) | > 100 µM (inactive) | > 100 µM (inactive) | > 100 µM (inactive) | > 100 µM (inactive) | > 100 µM (inactive) | > 100 µM (inactive)
8 | O=[N+]([O-])c1ccc2sc(/C=N/c3cnccn3)cc2c1 | 27.8 µM (inactive) | 30.3 µM (inactive) | 70.3 µM (inactive) | 21.4 µM (inactive) | 33.5 µM (inactive) | 17.1 µM (inactive) | 45.8 µM (inactive) | 39.8 µM (inactive) | 16 µM (inactive) | 14.5 µM (inactive) | 34.4 µM | 31 µM (inactive) | 30.4 µM (inactive) | 23.7 µM (inactive) | 18.7 µM (inactive) | 31 µM (inactive) | 28.3 µM (inactive) | 32.5 µM (inactive) | 22.8 µM (inactive) | 37.2 µM (inactive)
9 | COC(=O)Cc1c2n(c3ccccc13)C(=O)N1c3ccccc3C(CC(=O)OC)C21 (stereo not drawn) | > 100 µM (inactive) | 14.9 µM (inactive) | 53.1 µM (inactive) | > 100 µM (inactive) | 13.1 µM (inactive) | 23.5 µM (inactive) | 56.2 µM (inactive) | 87.3 µM (inactive) | > 100 µM (inactive) | > 100 µM (inactive) | 69 µM | 11.6 µM (inactive) | 21.8 µM (inactive) | 55.7 µM (inactive) | 68.1 µM (inactive) | 51.5 µM (inactive) | > 100 µM (inactive) | 62.1 µM (inactive) | 63.5 µM (inactive) | 
10 | Cn1c(=O)c2c(nc3[nH]c(=O)c(Br)cn32)n(C)c1=O | > 100 µM (inactive) | > 100 µM (inactive) | > 100 µM (inactive) | > 100 µM (inactive) | > 100 µM (inactive) | > 100 µM (inactive) | > 100 µM (inactive) | > 100 µM (inactive) | > 100 µM (inactive) | > 100 µM (inactive) | > 100 µM | > 100 µM (inactive) | > 100 µM (inactive) | > 100 µM (inactive) | > 100 µM (inactive) | > 100 µM (inactive) | > 100 µM (inactive) | > 100 µM (inactive) | > 100 µM (inactive) | > 100 µM (inactive)
11 | CC(=O)Nc1ccc(CNc2cc(=O)n(C)c(=O)[nH]2)cc1 | > 100 µM (inactive) | > 100 µM (inactive) | > 100 µM (inactive) | > 100 µM (inactive) | > 100 µM (inactive) | > 100 µM (inactive) | > 100 µM (inactive) | > 100 µM (inactive) | > 100 µM (inactive) | > 100 µM (inactive) | > 100 µM | > 100 µM (inactive) | > 100 µM (inactive) | > 100 µM (inactive) | > 100 µM (inactive) | > 100 µM (inactive) | > 100 µM (inactive) | > 100 µM (inactive) | > 100 µM (inactive) | > 100 µM (inactive)
12 | CC(C)C1CC(CO)(CNc2cc(Cl)nc(N)n2)C1 (stereo not drawn) | 1.15 µM (inactive) | > 100 µM (inactive) | 16.8 µM (inactive) | 9.57 µM (inactive) | > 100 µM (inactive) | > 100 µM (inactive) | 3.55 µM (inactive) | > 100 µM (inactive) | 11.8 µM (inactive) | 14.9 µM (inactive) | 22.5 µM | 30.9 µM (inactive) | > 100 µM (inactive) | 17.9 µM (inactive) | 34.8 µM (inactive) | 71 µM (inactive) | > 100 µM (inactive) | 39 µM (inactive) | 10.4 µM (inactive) | 
13 | CN(c1cn(C2CC[C@@H](CO)O2)c(=O)[nH]c1=O)C1CCCCC1 (stereo partly drawn) |  | > 100 µM (inactive) | > 100 µM (inactive) | > 100 µM (inactive) | > 100 µM (inactive) | > 100 µM (inactive) | > 100 µM (inactive) | > 100 µM (inactive) | > 100 µM (inactive) | > 100 µM (inactive) | > 100 µM | > 100 µM (inactive) | > 100 µM (inactive) | > 100 µM (inactive) | > 100 µM (inactive) | > 100 µM (inactive) | > 100 µM (inactive) | > 100 µM (inactive) | > 100 µM (inactive) | > 100 µM (inactive)
14 | CC(=O)c1cccc(NC(=O)C(=O)c2c(O)oc3ccccc3c2=O)c1 | > 100 µM (inactive) | > 100 µM (inactive) | > 100 µM (inactive) | > 100 µM (inactive) | > 100 µM (inactive) | > 100 µM (inactive) | > 100 µM (inactive) |  | > 100 µM (inactive) | > 100 µM (inactive) | > 100 µM | > 100 µM (inactive) | > 100 µM (inactive) | > 100 µM (inactive) | > 100 µM (inactive) | > 100 µM (inactive) | > 100 µM (inactive) | > 100 µM (inactive) | > 100 µM (inactive) | > 100 µM (inactive)
